Assay results from ChEMBL document CHEMBL1148303, “Design and synthesis of alpha-aryloxy-alpha-methylhydrocinnamic acids: a novel class of dual peroxisome proliferator-activated receptor alpha/gamma agonists” (J Med Chem, 2004).

How the values were obtained:
[1] = molecular target: T1, Peroxisome proliferator-activated receptor delta (Homo sapiens, UniProt Q03181); assay type: functional
T1 sequence (Q03181 whole entry): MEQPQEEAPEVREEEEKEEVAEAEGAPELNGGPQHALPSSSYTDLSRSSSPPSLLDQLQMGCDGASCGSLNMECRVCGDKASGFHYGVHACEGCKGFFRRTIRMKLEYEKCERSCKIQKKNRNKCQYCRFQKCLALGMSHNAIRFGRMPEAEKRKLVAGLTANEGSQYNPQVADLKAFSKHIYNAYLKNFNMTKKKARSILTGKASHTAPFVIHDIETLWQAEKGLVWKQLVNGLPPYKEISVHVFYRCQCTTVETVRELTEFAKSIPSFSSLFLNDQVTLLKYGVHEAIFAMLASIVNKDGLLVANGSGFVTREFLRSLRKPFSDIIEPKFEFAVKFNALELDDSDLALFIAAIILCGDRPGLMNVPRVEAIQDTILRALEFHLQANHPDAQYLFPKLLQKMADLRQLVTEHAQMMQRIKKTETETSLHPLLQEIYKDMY

[2] = molecular target: T1, Peroxisome proliferator-activated receptor delta; assay type: cell-based, CV-1
[3] = molecular target: T1, Peroxisome proliferator-activated receptor delta
[4] = molecular target: T1, Peroxisome proliferator-activated receptor delta; assay type: cell-based; details: cv-1
[5] = molecular target: T2, Peroxisome proliferator-activated receptor alpha (Homo sapiens, UniProt Q07869); assay type: cell-based, CV-1
T2 sequence (Q07869 whole entry): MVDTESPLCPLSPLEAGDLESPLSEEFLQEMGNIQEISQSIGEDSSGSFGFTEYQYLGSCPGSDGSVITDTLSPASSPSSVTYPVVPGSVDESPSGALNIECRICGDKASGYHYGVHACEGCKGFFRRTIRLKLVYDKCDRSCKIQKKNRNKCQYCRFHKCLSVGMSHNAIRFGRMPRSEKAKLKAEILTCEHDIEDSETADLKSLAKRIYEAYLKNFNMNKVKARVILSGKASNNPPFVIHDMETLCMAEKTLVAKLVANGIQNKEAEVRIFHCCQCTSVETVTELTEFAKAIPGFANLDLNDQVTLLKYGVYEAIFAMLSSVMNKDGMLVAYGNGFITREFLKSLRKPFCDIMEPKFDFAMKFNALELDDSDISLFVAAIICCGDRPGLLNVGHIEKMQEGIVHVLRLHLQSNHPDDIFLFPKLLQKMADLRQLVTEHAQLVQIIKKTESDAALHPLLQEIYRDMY

[6] = molecular target: T2, Peroxisome proliferator-activated receptor alpha; assay type: functional
[7] = molecular target: T1, Peroxisome proliferator-activated receptor delta; remark: listed apart in the source

Cc1oc(C2CCCCC2)nc1CCOc1ccc(C[C@](C)(Oc2ccccc2)C(=O)O)cc1
IC50 [1]: 9690 nM
EC50 ([2]; cv-1): Not Active

Cc1oc(C2CCCCC2)nc1CCOc1ccc(CC(C)(Oc2ccccc2)C(=O)O)cc1 (stereo not given)
IC50 [3]: Not Active
EC50 [4]: Not Active

Cc1oc(-c2ccc(-c3ccccc3)cc2)nc1CCOc1ccc(CC(C)(Oc2ccccc2)C(=O)O)cc1 (stereo not given)
IC50 [3]: Not Active
EC50 [4]: Not Active
EC50 [5]: 69 nM
IC50 [6]: 503 nM

Cc1oc(-c2ccccc2)nc1CCOc1ccc(C[C@@](C)(Oc2ccccc2)C(=O)O)cc1
IC50 [1]: 2680 nM
EC50 ([2]; read-out: EC50): 3010 nM

CCC(Cc1ccc(OCCc2nc(-c3ccccc3)oc2C)cc1)(Oc1ccccc1)C(=O)O (stereo not given)
IC50 [1]: 5070 nM
EC50 ([2]; cv-1): Not Active
EC50 [5]: 75 nM
IC50 [6]: 473 nM

Cc1oc(-c2cccs2)nc1CCOc1ccc(C[C@@](C)(Oc2ccccc2)C(=O)O)cc1
EC50 ([2]; cv-1): Not Active

Cc1oc(-c2ccccc2)nc1CCOc1ccc(CC(Oc2ccccc2)C(=O)O)cc1 (stereo not given)
IC50 [1]: 7040 nM
EC50 ([2]; cv-1): Not Active
EC50 [5]: 833 nM
IC50 [6]: 1110 nM

Cc1oc(-c2ccccc2)nc1CCOc1ccc(C[C@](C)(Oc2ccccc2)C(=O)O)cc1
IC50 [1]: 5520 nM
EC50 ([2]; cv-1): Not Active

Cc1oc(-c2ccccc2)nc1CCOc1ccc(OC(C)(Cc2ccccc2)C(=O)O)cc1 (stereo not given)
IC50 [1]: 4450 nM
EC50 [4]: Not Active

Cc1oc(-c2cccc(-c3ccccc3)c2)nc1CCOc1ccc(CC(C)(Oc2ccccc2)C(=O)O)cc1 (stereo not given)
IC50 [7]: Not Active
EC50 [4]: Not Active
EC50 [5]: 7 nM
IC50 [6]: 167 nM

Cc1oc(-c2ccccc2)nc1CCOc1ccc(CC(C)(Oc2ccccc2)C(=O)O)cc1 (stereo not given)
IC50 [1]: 7110 nM
EC50 [4]: Not Active

CCCCC(Cc1ccc(OCCc2nc(-c3ccccc3)oc2C)cc1)(Oc1ccccc1)C(=O)O (stereo not given)
IC50 [1]: 7230 nM
EC50 ([2]; cv-1): Not Active
EC50 [5]: 2560 nM
IC50 [6]: 1850 nM

Cc1oc(-c2cccs2)nc1CCOc1ccc(CC(C)(Oc2ccccc2)C(=O)O)cc1 (stereo not given)
EC50 [4]: Not Active

Cc1oc(-c2cccs2)nc1CCOc1ccc(C[C@](C)(Oc2ccccc2)C(=O)O)cc1 [LY-510929]
EC50 [4]: Not Active
